Measured values as given in paper PMC12387383, “Screening and Assessment of Hypoglycemic Active Peptide from Natural Edible Pigment Phycobiliprotein Based on Molecular Docking, Network Pharmacology, Enzyme Inhibition Assay Analyses, and Cell Experiments” (Marine Drugs, 2025).
Blank lines part the entries; values can stand above or below the compound they belong to. Peptide text beside a SMILES is read from it.

How the values were obtained:
[1] = biological target: T1, DPP-IV (Homo sapiens, UniProt P27487); assay: DPP-IV inhibitor screening kit (fluorescence); assay type: biochemical; conditions: mean ± SD, n = 3
T1 construct: purchased Elabscience Biotechnology Co., Ltd. E-BC-D007
T1 sequence (P27487 whole entry, species assumed): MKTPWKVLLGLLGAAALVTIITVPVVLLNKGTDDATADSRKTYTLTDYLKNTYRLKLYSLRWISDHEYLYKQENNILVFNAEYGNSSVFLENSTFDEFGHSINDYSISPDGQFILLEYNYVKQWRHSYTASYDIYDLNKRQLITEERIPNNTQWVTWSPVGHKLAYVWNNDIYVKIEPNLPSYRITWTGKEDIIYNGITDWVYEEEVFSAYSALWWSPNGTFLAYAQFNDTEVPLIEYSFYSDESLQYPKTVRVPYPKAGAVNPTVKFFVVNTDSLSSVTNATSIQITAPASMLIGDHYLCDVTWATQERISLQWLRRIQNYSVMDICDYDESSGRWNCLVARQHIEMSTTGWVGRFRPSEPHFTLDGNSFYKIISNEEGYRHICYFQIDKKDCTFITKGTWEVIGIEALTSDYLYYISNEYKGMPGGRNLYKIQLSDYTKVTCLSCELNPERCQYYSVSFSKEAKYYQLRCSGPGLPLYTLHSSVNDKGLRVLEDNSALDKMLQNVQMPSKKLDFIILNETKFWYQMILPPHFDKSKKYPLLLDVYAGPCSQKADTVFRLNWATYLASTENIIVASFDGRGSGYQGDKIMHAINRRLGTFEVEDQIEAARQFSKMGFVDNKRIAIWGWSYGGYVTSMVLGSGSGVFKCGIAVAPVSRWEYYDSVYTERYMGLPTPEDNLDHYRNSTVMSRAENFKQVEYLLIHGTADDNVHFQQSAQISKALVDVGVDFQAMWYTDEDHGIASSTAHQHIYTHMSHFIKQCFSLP
Description: The hypoglycemic active peptides were synthesized via solid-phase synthesis by Shanghai science peptide Co., Ltd. (Shanghai, China). The purity and molecular weight of the synthesized peptides were confirmed using HPLC-MS. The α-glucosidase inhibitory activity was assessed a modified version of previously reported methods by adding 100 μL of p-NPG (1 mM) after 50 μL of peptide solution (0.125–2.0 mg/mL), and 50 μL of α-glucosidase (1 u/mL) were incubated at 37 °C for 15 min. Absorbance was measured at 405 nm after the reaction was stopped by adding 100 μL of […] after another 30 min of incubation. Similarly, α-amylase inhibitory activity was determined based on established protocols with minor modifications. Briefly, 100 μL of peptide solution (0.125–2.0 mg/mL) was mixed with 100 μL of α-amylase (1 U/mL) and incubated at 37 °C for 10 min. Then, 200 μL of pretreated soluble starch solution (2%, denatured at 95 °C for 8 min) was added, and the mixture was further incubated at 37 °C for 20 min. The reaction was stopped by adding 200 μL of DNS reagent (1% DNS; 12% sodium potassium tartrate in 0.4 M Na2CO3), followed by boiling at 100 °C for 15 min. After cooling, 200 μL of each reaction mixture was transferred to a 96-well plate, and absorbance was measured at 540 nm. DPP-IV inhibitory activity was evaluated using a DPP-IV inhibitor screening kit (Elabscience) following the manufacturer’s instructions with slight modifications. Peptide solutions were prepared at gradient concentrations (0.125, 0.25, 0.5, 1, 1.5, 2, 4, and 10 mg/mL). In a 96-well plate, 20 μL of enzyme solution and 30 μL of peptide sample were added to each well, mixed briefly, and incubated at 37 °C for 10 min. Then, 170 μL of reaction working solution was added, followed by a second incubation at 37 °C for 30 min. Fluorescence intensity was measured at an excitation wavelength of 360 nm and an emission wavelength of 460 nm. The IC50 values were determined by fitting dose–response curves using nonlinear regression analysis with a variable slope in GraphPad Prism 9. All IC50 results are expressed as mean ± SD based on three independent experiments.

[2] = system: hexokinase (HK) in IR-HepG2 cells; assay: Hexokinase activity in IR-HepG2 cells; assay type: cell-based; conditions: IR-HepG2, vs model control; GR-5, SA-6, VF-6 at 2 mmol/L, IR-7 at 1 mmol/L
Description: (§1) The IR-HepG2 cellular model was established as described in Section 3.6. […] Cell viability was evaluated in all groups to determine appropriate peptide concentrations and incubation times based on the criteria of non-cytotoxicity and maximal glucose consumption.
(§2) Glucose consumption was measured using a commercial glucose assay kit according to the manufacturer’s protocol. Intracellular glycogen content was quantified with a glycogen detection kit, while hexokinase (HK) and pyruvate kinase (PK) enzyme activities were determined using specific assay kits, following the provided instructions.

[3] = system: IR-HepG2 cells; assay: Glucose consumption in IR-HepG2 cells; assay type: cell-based; conditions: 2 mmol/L, IR-HepG2, compared to baseline, positive control
Description: HepG2 cells were maintained in Dulbecco’s Modified Eagle Medium (DMEM) supplemented with 10% fetal bovine serum and 1% penicillin–streptomycin under controlled conditions at 37 °C in a humidified atmosphere containing 5% CO2 for 24 h.
as §1, §2

[4] = system: IR-HepG2 cells; assay: Intracellular glycogen content in IR-HepG2 cells; assay type: cell-based; conditions: GR-5, SA-6, VF-6 at 2 mmol/L, IR-7 at 1 mmol/L
Description: as §1, §2

[5] = system: pyruvate kinase (PK) in IR-HepG2 cells; assay: Pyruvate kinase activity in IR-HepG2 cells; assay type: cell-based; conditions: IR-HepG2, vs model control; GR-5, SA-6, VF-6 at 2 mmol/L, IR-7 at 1 mmol/L
Description: as §1, §2

[6] = biological target: T2, α-amylase (Sus scrofa, UniProt P00690); conditions: literature value; cited from earlier work
T2 sequence (P00690 16-511): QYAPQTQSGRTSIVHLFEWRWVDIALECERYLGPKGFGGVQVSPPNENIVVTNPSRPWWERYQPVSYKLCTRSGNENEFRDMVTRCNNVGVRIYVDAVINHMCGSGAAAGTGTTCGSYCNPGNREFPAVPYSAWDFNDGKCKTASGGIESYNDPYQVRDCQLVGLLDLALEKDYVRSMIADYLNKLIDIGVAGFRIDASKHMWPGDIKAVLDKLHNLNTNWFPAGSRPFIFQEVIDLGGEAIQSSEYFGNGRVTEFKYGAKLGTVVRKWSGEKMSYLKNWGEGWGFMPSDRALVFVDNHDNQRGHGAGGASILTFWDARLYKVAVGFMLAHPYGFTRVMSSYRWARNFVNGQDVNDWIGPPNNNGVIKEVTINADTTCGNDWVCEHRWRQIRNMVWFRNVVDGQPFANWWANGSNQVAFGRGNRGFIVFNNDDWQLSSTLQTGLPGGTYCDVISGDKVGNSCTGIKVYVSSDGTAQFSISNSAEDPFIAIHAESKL

Compound: CC(C)[C@H](N)C(=O)N[C@@H](C)C(=O)N[C@@H](Cc1ccccc1)C(=O)NCC(=O)N[C@@H](CCCNC(=N)N)C(=O)N[C@@H](Cc1ccccc1)C(=O)O [VF-6, Val-Ala-Phe-Gly-Arg-Phe] (H-VAFGRF-OH; N-terminus and C-terminus assumed)
- IC50 [1]: 1.36 mM

Compound: CN(C)C(=N)N=C(N)N [metformin]
- increase in HK activity [2]: 54.9%
- increase in glucose consumption [3]: 105%
- increase in glycogen content [4]: 24.2%
- increase in PK activity [5]: 21.1%

Compound: FPSPPLVA
- α-amylase IC50 [6]: 0.92 ± 0.27 mg/mL

Compound: GPPMPPPPLP
- α-amylase IC50 [6]: 2.02 ± 0.2 mg/mL

Results, then the compound that gave them:

- IC50 [1]: 6.97 mM
Compound: CC(C)C[C@H](NC(=O)[C@H](Cc1ccc(O)cc1)NC(=O)[C@H](Cc1ccc(O)cc1)NC(=O)CN)C(=O)N[C@@H](CCCNC(=N)N)C(=O)O [GR-5, Gly-Tyr-Tyr-Leu-Arg] (H-GYYLR-OH; N-terminus and C-terminus assumed)

- IC50 [1]: 1.04 mM
Compound: CC[C@H](C)[C@H](N)C(=O)N[C@@H](C)C(=O)N[C@@H](CO)C(=O)N[C@@H](Cc1ccc(O)cc1)C(=O)N[C@@H](Cc1ccccc1)C(=O)N[C@@H](CC(=O)O)C(=O)N[C@@H](CCCNC(=N)N)C(=O)O [IR-7, Ile-Ala-Ser-Tyr-Phe-Asp-Arg] (H-IASYFDR-OH; N-terminus and C-terminus assumed)

- IC50 [1]: 11 mM
Compound: C[C@H](NC(=O)[C@H](CCCNC(=N)N)NC(=O)[C@H](CC(=O)O)NC(=O)[C@H](Cc1ccccc1)NC(=O)[C@H](Cc1ccc(O)cc1)NC(=O)[C@@H](N)CO)C(=O)O [SA-6, Ser-Tyr-Phe-Asp-Arg-Ala] (H-SYFDRA-OH; N-terminus and C-terminus assumed)
